In patent publication US20060281700A1, “SYNERGISTIC MODULATION OF FLT3 KINASE USING AMINOPYRIMIDINES KINASE MODULATORS” (priority 2005, published 2006):

Molecular target: T1, wild-type FLT3 phosphorylation in Baf3 FLT3 cells (Homo sapiens, UniProt P36888)
T1 sequence (P36888 27-993): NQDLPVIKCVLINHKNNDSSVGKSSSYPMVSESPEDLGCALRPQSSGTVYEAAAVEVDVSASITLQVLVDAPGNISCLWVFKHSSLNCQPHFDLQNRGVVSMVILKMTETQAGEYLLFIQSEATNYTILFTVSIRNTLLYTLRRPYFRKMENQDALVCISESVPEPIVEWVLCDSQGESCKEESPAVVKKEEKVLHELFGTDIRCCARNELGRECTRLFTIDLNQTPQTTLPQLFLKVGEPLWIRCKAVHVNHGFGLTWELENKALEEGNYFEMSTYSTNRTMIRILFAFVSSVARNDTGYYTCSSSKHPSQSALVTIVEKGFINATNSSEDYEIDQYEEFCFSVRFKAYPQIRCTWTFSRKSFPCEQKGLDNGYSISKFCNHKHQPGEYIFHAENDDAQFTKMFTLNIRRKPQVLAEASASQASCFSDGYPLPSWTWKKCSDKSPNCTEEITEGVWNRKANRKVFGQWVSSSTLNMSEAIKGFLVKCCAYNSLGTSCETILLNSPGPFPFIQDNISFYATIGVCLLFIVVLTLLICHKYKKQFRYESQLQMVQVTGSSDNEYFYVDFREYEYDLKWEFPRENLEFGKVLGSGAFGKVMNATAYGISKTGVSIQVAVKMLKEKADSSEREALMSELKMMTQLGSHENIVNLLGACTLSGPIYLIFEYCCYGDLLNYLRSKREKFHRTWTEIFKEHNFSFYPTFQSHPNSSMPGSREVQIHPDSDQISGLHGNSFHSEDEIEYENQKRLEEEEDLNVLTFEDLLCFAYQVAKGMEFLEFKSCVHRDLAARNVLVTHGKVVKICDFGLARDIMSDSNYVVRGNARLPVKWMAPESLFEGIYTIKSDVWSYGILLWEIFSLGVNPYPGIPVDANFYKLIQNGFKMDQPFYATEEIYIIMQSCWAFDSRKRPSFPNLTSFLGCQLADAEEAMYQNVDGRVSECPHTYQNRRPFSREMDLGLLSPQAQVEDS
Assay: Cell-Based FLT3 Receptor Elisa
Details: 1 hour compound, 100 ng/mL Flt ligand 10 min; uncertainty ±20%
Experimental: Cell-Based FLT3 Receptor Elisa
Specific cellular inhibition of FLT ligand-induced wild-type FLT3 phosphorylation was measured in the following manner: Baf3 FLT3 cells overexpressing the FLT3 receptor were obtained from Dr. Michael Heinrich (Oregon Health and Sciences University). The Baf3 FLT3 cell lines were created by stable transfection of parental Baf3 cells (a murine B cell lymphoma line dependent on the cytokine IL-3 for growth) with wild-type FLT3. Cells were selected for their ability to grow in the absence of IL-3 and in the presence of FLT3 ligand.
Baf3 cells were maintained in RPMI 1640 with 10% FBS, penn/strep and 10 ng/ml FLT ligand at 37° C., 5% CO2. To measure direct inhibition of the wild-type FLT3 receptor activity and phosphorylation a sandwich ELISA method was developed similar to those developed for other RTKs (see Sadick, M D, Sliwkowski, M X, Nuijens, A, Bald, L, Chiang, N, Lofgren, J A, Wong W L T. Analysis of Heregulin-Induced ErbB2 Phosphorylation with a High-Throughput Kinase Receptor Activation Enzyme-Linked Immunsorbent Assay, Analytical Biochemistry. 1996; 235:207-214 and Baumann C A, Zeng L, Donatelli R R, Maroney A C. Development of a quantitative, high-throughput cell-based enzyme-linked immunosorbent assay for detection of colony-stimulating factor-1 receptor tyrosine kinase inhibitors. J Biochem Biophys Methods. 2004; 60:69-79.). 200 μL of Baf3FLT3 cells (1×10^6/mL) were plated in 96 well dishes in RPMI 1640 with 0.5% serum and 0.01 ng/mL IL-3 for 16 hours prior to 1 hour compound or DMSO vehicle incubation. Cells were treated with 100 ng/mL Flt ligand (R&D Systems Cat# 308-FK) for 10 min. at 37° C. Cells were pelleted, washed and lysed in 100 ul lysis buffer (50 mM Hepes, 150 mM NaCl, 10% Glycerol, 1% Triton-X-100, 10 mM NaF, 1 mM EDTA, 1.5 mM MgCl2, 10 mM NaPyrophosphate) supplemented with phosphatase (Sigma Cat# P2850) and protease inhibitors (Sigma Cat #P8340). Lysates were cleared by centrifugation at 1000×g for 5 minutes at 4° C. Cell lysates were transferred to white wall 96 well microtiter (Costar #9018) plates coated with 50 ng/well anti-FLT3 antibody (Santa Cruz Cat# sc-480) and blocked with SeaBlock reagent (Pierce Cat#37527). Lysates were incubated at 4° C. for 2 hours. Plates were washed 3× with 200 ul/well PBS/0.1% Triton-X-100. Plates were then incubated with 1:8000 dilution of HRP-conjugated anti-phosphotyrosine antibody (Clone 4G10, Upstate Biotechnology Cat#16-105) for 1 hour at room temperature. Plates were washed 3× with 200 ul/well PBS/0.1% Triton-X-100. Signal detection with Super Signal Pico reagent (Pierce Cat#37070) was done according to manufacturer's instruction with a Berthold microplate luminometer. All data points are an average of triplicate samples. […] Inhibition and IC50 data analysis was done with GraphPad Prism using a non-linear regression fit with a multiparamater, sigmoidal dose-response (variable slope) equation.

Row | Compound | IC50 [nM]
1 | CCNC(=O)NCCO/N=C/c1c(N)ncnc1N1CCC(NC(=O)Nc2ccc(C(C)C)cc2)C1 (centres unmarked) [Number 28, 1-[1-(6-Amino-5-{[2-(3-ethyl-ureido)-ethoxyimino]-methyl}-pyrimidin-4-yl)-pyrrolidin-3-yl]-3-(4-isopropyl-phenyl)-urea] | 2300
2 | CC(C)c1ccc(NC(=O)NC2CCN(c3ncnc(N)c3/C=N/OCC(=O)N3CCOCC3)C2)cc1 (centres unmarked) [Number 29, 1-(1-{6-Amino-5-[(2-morpholin-4-yl-2-oxo-ethoxyimino)-methyl]-pyrimidin-4-yl}-pyrrolidin-3-yl)-3-(4-isopropyl-phenyl)-urea] | 2400
